{"source": "PubChem BioAssay AID588764", "about": "(Broad Institute, 2011)", "note": "Records with an inconclusive call do not appear. Activity calls are given as the source filed them. How the calls were made is not given here."}
{"target": "Histone acetyltransferase RTT109 (Candida albicans (strain SC5314 / ATCC MYA-2876)) (UniProt Q5AAJ8)", "sequence (Q5AAJ8 whole entry, looked up)": "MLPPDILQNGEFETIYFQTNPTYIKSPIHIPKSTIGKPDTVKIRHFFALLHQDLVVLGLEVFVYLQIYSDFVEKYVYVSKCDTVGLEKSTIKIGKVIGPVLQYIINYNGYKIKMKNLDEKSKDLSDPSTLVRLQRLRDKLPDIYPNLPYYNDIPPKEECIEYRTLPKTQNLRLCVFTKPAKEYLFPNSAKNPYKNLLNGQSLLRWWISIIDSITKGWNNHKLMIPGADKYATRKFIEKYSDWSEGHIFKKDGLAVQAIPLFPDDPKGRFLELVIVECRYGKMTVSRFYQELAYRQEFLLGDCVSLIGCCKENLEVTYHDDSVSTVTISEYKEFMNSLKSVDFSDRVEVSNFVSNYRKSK", "test": "Rtt109/Vps75 acetyltransferase inhibitor potency, dose response, biochemical, cherry-picked hits, plate reader (AID 588764);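 on activity change, negative = inhibition: 0% = neutral control wells and -100% = no enzyme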", "settings": "Rtt109/Vps75 HAT activity", "units": {"AC50": "µM"}}
{"molecule": "O=C1C(Cl)=C(N2CCOCC2)C(=O)N1c1ccccc1Cl", "AC50": 14.8}
{"molecule": "O=S(=O)(NN1CCOCC1)c1ccc(Br)cc1", "AC50": 11.6}
{"molecule": "Cc1cc(C)c2c(=O)n(CC(=O)N3CCC(N4CCCCC4)CC3)sc2n1", "AC50": 4.72}
{"molecule": "Cc1ccccc1-n1sc2cc(F)ccc2c1=O", "AC50": 5.9}
{"molecule": "C[C@]12CC[C@@H]3c4cc(O)c(O)cc4CC[C@H]3[C@@H]1CC[C@@H]2O", "AC50": 9.63}
{"target": "Histone acetyltransferase RTT109 (Candida albicans (strain SC5314 / ATCC MYA-2876)) (UniProt Q5AAJ8)", "test": "Rtt109/Vps75 acetyltransferase inhibitor potency, dose response, biochemical, cherry-picked hits, plate reader (AID 588764);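 on activity change, negative = inhibition: 0% = neutral control wells and -100% = no enzyme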", "settings": "Rtt109/Vps75 HAT activity, at 19.5 µM (top of the series)"}
{"molecule": "Cn1c(SCC(=O)NC2CCCCC2)nnc1-c1cccnc1", "activity change, negative = inhibition": "inactive"}
{"molecule": "CN(C(=O)CCc1nc(-c2ccccc2F)no1)c1ccccc1", "activity change, negative = inhibition": "inactive"}
{"molecule": "Cn1c(=O)c2c(nc(NC3CCCCC3)n2CC(=O)C23CC4CC(CC(C4)C2)C3)n(C)c1=O", "activity change, negative = inhibition": "inactive"}
{"molecule": "COc1cccc(/C=C2\\SC(=S)N(C(C)C(=O)NC3C=CS(=O)(=O)C3)C2=O)c1", "note": "(stereo not drawn)", "activity change, negative = inhibition": "inactive"}
{"molecule": "CCN(CC)c1ccc(C(=S)N2CCN(c3ccccc3)CC2)cc1", "activity change, negative = inhibition": "inactive"}
{"molecule": "C#CCOCCOCCOCCNc1nc(N2CCN(C(=O)C([C@@H](C)O)n3cc([C@@H](N)CCCCN)nn3)CC2)nc(N2CCN(C(=O)[C@H](CCCCN)n3cc(CN)nn3)CC2)n1", "note": "(stereo partly drawn)", "activity change, negative = inhibition": "inactive"}
{"molecule": "CCc1nnc(NC(=O)CN2C(=O)c3ccccc3C2=O)s1", "activity change, negative = inhibition": "inactive"}
{"molecule": "Cc1cc(C)nc(N2CCC(C(=O)Nc3ccc4c(c3)OCCO4)CC2)n1", "activity change, negative = inhibition": "inactive"}
{"molecule": "CN(C)S(=O)(=O)Oc1ccccc1C(=O)Nc1ccccc1Cl", "activity change, negative = inhibition": "inactive"}
{"molecule": "CN(C(=O)c1ccc(N2CCCCC2)c([N+](=O)[O-])c1)C1(C)CCS(=O)(=O)C1", "note": "(stereo not drawn)", "activity change, negative = inhibition": "inactive"}
{"molecule": "Cc1cc(C)cc(NC(=O)NC(C)C2CCCO2)c1", "note": "(stereo not drawn)", "activity change, negative = inhibition": "inactive"}
{"molecule": "CCOC(=O)c1c(CNCCN(CC)CC)n(C)c2cc(Br)c(OC)cc12", "activity change, negative = inhibition": "inactive"}
{"molecule": "O=C(Nc1ccc(Oc2cccnc2)cc1)C1CCN(Cc2cc(Cl)ccc2O)CC1", "activity change, negative = inhibition": "inactive"}
{"molecule": "COc1ccccc1C(=O)Nc1ccc(OCC(=O)N2CC(C)CC(C)C2)cc1", "note": "(stereo not drawn)", "activity change, negative = inhibition": "inactive"}
{"molecule": "CCOc1ccc(S(=O)(=O)NCCC(=O)Nc2cccc(C(=O)OC)c2)cc1", "activity change, negative = inhibition": "inactive"}
{"molecule": "COc1ccc(NC(=O)CSc2nnc(-c3ccccc3)n2N)cc1", "activity change, negative = inhibition": "inactive"}
{"molecule": "CC(C)c1ccc(NC(=O)NC(C)c2ccc3c(c2)OCO3)cc1", "note": "(stereo not drawn)", "activity change, negative = inhibition": "inactive"}
{"molecule": "COC(=O)c1cc2c(ccn2-c2ccc(F)cc2)n1CC(=O)C(C)(C)C", "activity change, negative = inhibition": "inactive"}
{"molecule": "CCOC(=O)c1ccc(N2C(=O)c3n[nH]c(C)c3C2c2ccc(OC)cc2)cc1", "note": "(stereo not drawn)", "activity change, negative = inhibition": "inactive"}
{"molecule": "CC1(C)C2CCC1(C)C(OCC[N+](C)(C)CC(=O)OC1CCCCC1)C2", "note": "(stereo not drawn)", "activity change, negative = inhibition": "inactive"}
{"molecule": "CCN(CC)CCCNc1nc2cc(OC)c(OC)cc2c2nc(-c3cccnc3)nn12", "activity change, negative = inhibition": "inactive"}
{"molecule": "COc1ccc(NC(=O)Nc2nnc(-c3cccs3)s2)cc1", "activity change, negative = inhibition": "inactive"}
{"molecule": "Cc1nn(C)cc1[C@@H]1C[C@H]2CN(Cc3cccc(Cl)c3)C(=O)[C@]23CCCN13", "activity change, negative = inhibition": "inactive"}
{"molecule": "CC(C)C(=O)Nc1nnc(CCN2CCCCC2)s1", "activity change, negative = inhibition": "inactive"}
{"molecule": "COc1ccc(-n2cnc3scc(-c4ccc(OC)c(OC)c4)c3c2=O)cc1", "activity change, negative = inhibition": "inactive"}
{"molecule": "Cc1cc(C)c2sc(C)[n+](CCCS(=O)(=O)[O-])c2c1", "activity change, negative = inhibition": "inactive"}
{"molecule": "N#C/C(=C\\c1ccncc1)c1nc2c(s1)CCCC2", "activity change, negative = inhibition": "inactive"}
{"molecule": "COc1cc(C2NC(=O)C(C#N)=C(S)N2c2ccccc2)ccc1OC(C)C", "note": "(stereo not drawn)", "activity change, negative = inhibition": "inactive"}
